Results on one compound are retold here after US5147856A, “Method for inhibiting blood vessel blockage using octapeptide compositions” (Societe de Conseils de Recherches et d'Applications …, priority 1988, dated 1992).

Molecules are shown by their SMILES. Several values for one entry are separate records, joined by “and”; a condition that tells them apart may be missing. Equal entries are not always repeated.

In experiment [1] the test system is myointimal proliferation of the carotid artery. As to the kind of experiment: Air-drying injury of the rat carotid artery, intimal/media ratio (Example 2). Type of experiment: in vivo. Conditions: for Intimal/Media Ratio: mean ± SE. On the procedure: Male Sprague-Dawley rats, weighing […], obtained from Charles River were kept under controlled lighting conditions and fed rat chow and water ad libitum. Under sodium pentobarbital anesthesia the intima of the right carotid artery was subjected to an air-drying injury described by Fishman et al, Lab Invest., 32, 339 (1975). The procedure causes intimal hyperplasia that largely consists of proliferating intimal smooth muscle cells. In this model approximately 4 cm of the vessel is isolated and drained of blood. Air (20 ml/min) is blown through a 30 gauge needle for 5 min whereafter blood flow is reestablished. The contralateral carotid artery was also exposed but not air-dried. The rats were sacrificed 15 days later.
The experiment consisted of a control group and ten treatment groups. The somatostatin analogs used were hepta- or octapeptides, namely BIM 23014 (Angiopeptin), BIM 23012, BIM 23027, BIM 23030 and BIM 23034. […] The animals were pretreated two days prior to the procedure and for a further five days following the endothelial injury. Two additional groups of animals were added in order to study whether Angiopeptin (20 μg/kg/day and 50 μg/kg/day) administered 30 min prior to the endothelial injury and for a further five days would protect against the myointimal proliferation.
The animals were sacrificed on day 15 following the injury by exsanguination. The vascular system was flushed with normal saline and perfusion-fixed at 80 mmHg with 10% formalin. The carotid arteries were subsequently fixed, embedded and sectioned for light microscopy and morphometric analysis. The maximal intimal/media ratio is the distance from the lumen to the internal elastic lamina and the distance from the internal elastic lamina to the external elastic lamina. The distances were determined in each vessel using a digitizing system attached to a light microscope. The determinations were performed on three different cross sections of the vessel and each section was measured three times. The mean was calculated for each vessel. Differences between the groups were evaluated using Student's unpaired t-test.

Experiment [2] has as its system intimal hyperplasia of aorta and iliac arteries. Nature of the experiment: Myointimal hyperplasia in rabbits after balloon angioplasty (Example 3). The class given is in vivo, rabbit. Conditions: for % Intimal hyperplasia: 20 μg/kg twice daily s.c., individual samples; for Percentage of inhibition of myointimal hyperplasia: 20 μg/kg/d. The protocol: Female and Male, white New Zealand rabbits (2.8-3.0 kg) were divided into two groups (A and B). Group A (vehicle control) received subcutaneous injections of physiological saline (0.2 ml) twice daily. […] The animals were treated the day before angioplasty, and until sacrifice about 3 weeks later. The angioplasty was done under general anesthesia with Ketamine and Xylazine. Each animal's left iliac artery and aorta were denuded with an angioplasty catheter (Fogarty). The angioplasty catheter was inserted into the left femoral artery and passed through the vessel to the thoracic aorta. The catheter was then reciprocated three times. The animals were all sacrificed from days 22-24 after angioplasty. The aorta and iliac arteries were fixed in situ via perfusion with formaldehyde under constant perfusion pressure.
Intimal hyperplasia was determined on elastin-stained (Van Giesen) horizontally-cut sections. The sections were obtained from (i) the aorta at the level of the renal artery, (ii) the common iliac artery at the level of bifurcation, and (iii) the external iliac artery just above the inguinal ligament. The area of intimal hyperplasia and total vessel area were determined by morphometry. The percentage of intimal hyperplasia was expressed as follows: [formula]
Single determinations were made on three segments of each aorta and the two iliac arteries of each animal. The percentage of intimal hyperplasia was determined as the mean of the two closest measurements of each vessel.

In experiment [3] the test system is hyperplasia of the right carotid artery. Nature of the experiment: Air-drying injury of the rat right carotid artery, ratio of width of intimal and medial layers (Example 4). Type of experiment: in vivo. Conditions: 50 μg/kg/day s.c. twice a day. The protocol:
Angiopeptin was administered s.c. twice a day 50 μg/kg/day to male Sprague-Dawley (Charles River) rats, 250-350 g each. After two days of pre-treatment, a lesion was made on the third day after the morning dose by air-drying the right carotid artery while the rats were under anesthesia (Ketamine-Innovar, i.m.). Treatment was continued on day: 4, 5, 6, and 7. The rats were sacrificed on day 14 following the injury. After in-situ fixation at constant pressure, with 10% formalin, the tissues were prepared to form morphometrics.
Hyperplasia was measured as the ratio of width of intimal and medial layers. For each rat, 3 different histological sections were measured and the morphometrics was done 3 times on each section.

Experiment [4] relates to smooth muscle cell proliferation in the aorta and femoral arteries. Nature of the experiment: Primate balloon catheter injury of aorta and femoral arteries (Example 5). The class given is in vivo, cynomologous macaque. Conditions: aorta and left and right femoral arteries; i.m. slow release system, 50 μg/kg/day; one treated primate vs one control; five weeks. The protocol: In order to obtain a primate coronary angioplasty model which would be suited for evaluation of Angiopeptin, a feasibility study was performed on primates which were made available from the colony at Bowman-Gray Medical School, Winston-Salem, North Carolina. These animals were culled from the colony due to failure of the primates to satisfactorily elevate blood lipids when administered a high cholesterol diet. Young male cynomologous macaques weighing approximately 3.5 kg were used after an equilibration period of more than a week in a primate facility.
The animals were sedated with Ketamine and maintained with 1% halothane in oxygen. The aorta and femoral arteries were injured by a balloon catheter (USCI, Band). After five weeks the primates were anesthetized and sacrificed. The aorta and femoral arteries were removed and fixed in formaldehyde for morphometric analysis. […]
The maximal intimal/media ratio (distance from lumen to internal elastic lamina/distance from internal elastic lamina to external elastic lamina) was determined in each vessel using a digitizing system attached to a light microscope. The determinations were done on three different cross sections of the vessel and each section was measured three times and each three measurements were averaged.

Experiment [5] deals with growth hormone release. Conditions: cited from earlier work.
[6] abbreviates: common iliac artery, female rabbits.
Setting [7] is: common iliac artery, male rabbits.
Where [8] appears, read: external iliac artery, female rabbits.

For the compound `CC(C)[C@@H]1NC(=O)[C@H](CCCCN)NC(=O)[C@@H](Cc2c[nH]c3ccccc23)NC(=O)[C@H](Cc2ccc(O)cc2)NC(=O)[C@@H](NC(=O)[C@H](N)Cc2ccc3ccccc3c2)CSSC[C@@H](C(=O)N[C@H](C(N)=O)[C@@H](C)O)NC1=O` [Angiopeptin, D-Nal-Cys-Tyr-D-Trp-Lys-Val-Cys-Thr-NH2], the “Intimal/Media Ratio” value came out at 1.7 ± 0.2 in experiment [1] (20 μg/kg/day s.c. in two divided doses, from two days prior to injury and five days postinjury, sacrifice day 15); 1.6 ± 0.9 in experiment [1] (20 μg/kg/day, pretreatment 30 min prior to injury and for a further five days); 1.1 ± 0.2 in experiment [1] (50 μg/kg/day s.c. in two divided doses, from two days prior to injury and five days postinjury, sacrifice day 15); 1.0 ± 0.3 in experiment [1] (50 μg/kg/day, pretreatment 30 min prior to injury and for a further five days). The “Inhibition of myointimal proliferation, in words” value is “significantly (p<0.01) inhibited” in experiment [1] (50 μg/kg/day from 30 min prior to injury and for a further five days); “effective” in experiment [1] (high dose 50 μg/kg/day, from two days prior to injury); “effective” in experiment [1] (low dose 20 μg/kg/day, from two days prior to injury). For the same compound, the “Inhibition of myointimal (smooth muscle cell) proliferation of the carotid artery, in words” value in experiment [1] (administered from two days prior to injury, at the doses used (20 and 50 μg/kg/day)) is on record as “inhibited significantly”. The “% Intimal hyperplasia” value was 13.0% and 6.4% in experiment [2] (aorta, female rabbits); 17.0% in experiment [2] (aorta, male rabbits); 9.3% and 9.5% and 7.7% and 6.5% in experiment [2] (setting [6]); 16.0% and 6.4% and 14.0% in experiment [2] (setting [7]); 6.6% in experiment [2] (setting [8]). For the same compound, the “Percentage of inhibition of myointimal hyperplasia” value was approximately 43% in experiment [2] (aorta, female rabbits); approximately 32% in experiment [2] (aorta, male rabbits); approximately 33% in experiment [2] (setting [6]); approximately 39% in experiment [2] (setting [7]); “about 41%” in experiment [2] (setting [8]); approximately 20% in experiment [2] (external iliac artery, male rabbits). Moreover, the “Hyperplasia: ratio of width of intimal and medial layers” value in experiment [3] (two days pre-treatment and days 4-7, sacrifice day 14, individual rats) was 0.46 ± 0.08 and 0.28 ± 0.03 and 0.52 ± 0.05 and 0.69 ± 0.02. Also, the “Hyperplasia: ratio of width of intimal and medial layers, mean” value in experiment [3] (group mean, N 4) is listed as 0.48. The “Inhibition of smooth muscle cell proliferation, in words” value in experiment [4] is “nearly complete inhibition”. Moreover, the “Inhibition of growth hormone release, in words” value in experiment [5] (in vivo) is on record as “less active”. In addition, in experiment [5] (rats, compared to somatostatin 14 (=1)), the “Potency for growth hormone suppression in vivo, relative to somatostatin 14” value was 5.
